Reference: ChEMBL document CHEMBL4406836, “The design of a cell-selective fowlicidin-1-derived peptide with both antimicrobial and anti-inflammatory activities” (Eur J Med Chem, 2019)
In brackets after ≈: the same amount, converted by molar mass. Activity calls are given as the source filed them. The calls are words filed in the database; no cut-off is given here.

Columns and labels:
Staphylococcus aureus [1] = assay: (§1) Fractional inhibitory concentration, ratio of MIC of compound in presence of ciprofloxacin to MIC of ciprofloxacin for antibacterial activity against methicillin-resistant Staphylococcus aureus CCARM 3089; type: functional
Staphylococcus aureus [2] = assay: Potentiation of oxacillin-induced antibacterial activity against methicillin-resistant Staphylococcus aureus CCARM 3089 assessed as reduction in oxacillin MIC at 1/16th MIC incubated for 72 hrs by spectrophotometry; type: functional
Staphylococcus aureus [3] = assay: Antibacterial activity against methicillin-resistant Staphylococcus aureus CCARM 3089 assessed as reduction in bacterial growth incubated for 18 hrs by spectrophotometry based microtiter broth dilution method; type: functional; conditions: CCARM 3089, 18 h
Pseudomonas aeruginosa [4] = type: functional; conditions: CCARM 2095, 72 h
Pseudomonas aeruginosa [5] = assay: (§2) Fractional inhibitory concentration index, sum of ratio of MIC of compound in presence of […] uM oxacillin to MIC of chloramphenicol and ratio of MIC of compound in presence of oxacillin to MIC of compound for antibacterial activity against multidrug-resistant Pseudomonas aeruginosa CCARM 2095; type: functional
Pseudomonas aeruginosa [6] = assay: Fractional inhibitory concentration, ratio of MIC of compound in presence of […] uM ciprofloxacin to MIC of ciprofloxacin for antibacterial activity against multidrug-resistant Pseudomonas aeruginosa CCARM 2095; type: functional
Staphylococcus aureus [7] = assay: Potentiation of chloramphenicol-induced antibacterial activity against methicillin-resistant Staphylococcus aureus CCARM 3089 assessed as reduction in chloramphenicol MIC at 1/16th MIC incubated for 72 hrs by spectrophotometry; type: functional
Staphylococcus aureus [8] = type: functional; conditions: CCARM 3089, 72 h
Pseudomonas aeruginosa [9] = assay: Potentiation of oxacillin-induced antibacterial activity against mutidrug-resistant Pseudomonas aeruginosa CCARM 2095 assessed as reduction in oxacillin MIC at 1/16th MIC incubated for 72 hrs by spectrophotometry; type: functional
Pseudomonas aeruginosa [10] = assay: Potentiation of chloramphenicol-induced antibacterial activity against mutidrug-resistant Pseudomonas aeruginosa CCARM 2095 assessed as reduction in chloramphenicol MIC at 1/16th MIC incubated for 72 hrs by spectrophotometry; type: functional
Pseudomonas aeruginosa [11] = assay: Antibacterial activity against multidrug-resistant Pseudomonas aeruginosa CCARM 2095 assessed as reduction in bacterial growth incubated for 18 hrs by spectrophotometry based microtiter broth dilution method; type: functional; conditions: CCARM 2095, 18 h
Enterococcus faecium = assay: Antibacterial activity against vancomycin-resistant Enterococcus faecium ATCC 51559 assessed as reduction in bacterial growth incubated for 18 hrs by spectrophotometry based microtiter broth dilution method; type: functional; conditions: ATCC 51559, 18 h
Staphylococcus aureus [12] = assay: as §1, with “concentration index, sum of ratio of MIC of compound in presence of […] uM ciprofloxacin to MIC of ciprofloxacin and” for “concentration,”; type: functional
Pseudomonas aeruginosa [13] = assay: as §2, with “[…]” for “oxacillin”; type: functional
Pseudomonas aeruginosa [14] = assay: Fractional inhibitory concentration, ratio of MIC of compound in presence of […] uM chloramphenicol to MIC of chloramphenicol for antibacterial activity against multidrug-resistant Pseudomonas aeruginosa CCARM 2095; type: functional
Staphylococcus aureus [15] = assay: Induction of cytoplasmic membrane depolarization in Staphylococcus aureus at 2 times of MIC for a period of 600 sec by DiSC3-5-fluorescence based assay; type: functional, organism-based
Pseudomonas aeruginosa [16] = assay: Antibacterial activity against multidrug-resistant Pseudomonas aeruginosa CCARM 2109 assessed as reduction in bacterial growth incubated for 18 hrs by spectrophotometry based microtiter broth dilution method; type: functional; conditions: CCARM 2109, 18 h
Pseudomonas aeruginosa [17] = type: functional; conditions: CCARM 2095, 72 h; remark: listed apart in the source
Pseudomonas aeruginosa [18] = assay: Antibacterial activity against multidrug-resistant Pseudomonas aeruginosa CCARM 2095 assessed as reduction in bacterial growth incubated for 72 hrs by spectrophotometry; type: functional; conditions: CCARM 2095, 72 h
Staphylococcus aureus [19] = assay: Fractional inhibitory concentration index, sum of ratio of MIC of compound in presence of […] uM oxacillin to MIC of oxacillin and ratio of MIC of compound in presence of oxacillin […] antibacterial activity against methicillin-resistant Staphylococcus aureus CCARM 3089; type: functional
Staphylococcus aureus [20] = assay: Antibacterial activity against methicillin-resistant Staphylococcus aureus CCARM 3090 assessed as reduction in bacterial growth incubated for 18 hrs by spectrophotometry based microtiter broth dilution method; type: functional; conditions: CCARM 3090, 18 h
Pseudomonas aeruginosa [21] = type: functional; conditions: CCARM 2095, 72 h; remark: listed apart in the source
Staphylococcus aureus [22] = assay: Fractional inhibitory concentration index, sum of ratio of MIC of compound in presence of 128 uM chloramphenicol to MIC of chloramphenicol and ratio of MIC of compound in presence of chloramphenicol to MIC of chloramphenicol for antibacterial activity against methicillin-resistant Staphylococcus aureus CCARM 3089; type: functional
Pseudomonas aeruginosa [23] = assay: Fractional inhibitory concentration, ratio of MIC of compound in presence of oxacillin to MIC of compound for antibacterial activity against multidrug-resistant Pseudomonas aeruginosa CCARM 2095; type: functional
Staphylococcus aureus [24] = assay: Antibacterial activity against methicillin-resistant Staphylococcus aureus CCARM 3089 assessed as reduction in bacterial growth incubated for 72 hrs by spectrophotometry; type: functional; conditions: CCARM 3089, 72 h
Staphylococcus aureus [25] = assay: Induction of cytoplasmic membrane depolarization in Staphylococcus aureus at 2 times of MIC within 4 mins by SYTOX green-based assay; type: functional, organism-based
Staphylococcus aureus [26] = assay: Antibacterial activity against methicillin-resistant Staphylococcus aureus CCARM 3095 assessed as reduction in bacterial growth incubated for 18 hrs by spectrophotometry based microtiter broth dilution method; type: functional; conditions: CCARM 3095, 18 h
Pseudomonas aeruginosa [27] = assay: Fractional inhibitory concentration, ratio of MIC of compound in presence of chloramphenicol to MIC of compound for antibacterial activity against multidrug-resistant Pseudomonas aeruginosa CCARM 2095; type: functional
Pseudomonas aeruginosa [28] = assay: Fractional inhibitory concentration, ratio of MIC of compound in presence of […] uM oxacillin to MIC of oxacillin for antibacterial activity against multidrug-resistant Pseudomonas aeruginosa CCARM 2095; type: functional
Staphylococcus aureus [29] = assay: Fractional inhibitory concentration, ratio of MIC of compound in presence of oxacillin to MIC of oxacillin for antibacterial activity against methicillin-resistant Staphylococcus aureus CCARM 3089; type: functional
Pseudomonas aeruginosa [30] = assay: Fractional inhibitory concentration, ratio of MIC of compound in presence of ciprofloxacin to MIC of compound for antibacterial activity against multidrug-resistant Pseudomonas aeruginosa CCARM 2095; type: functional
Staphylococcus aureus [31] = assay: Fractional inhibitory concentration, ratio of MIC of compound in presence of chloramphenicol to MIC of chloramphenicol for antibacterial activity against methicillin-resistant Staphylococcus aureus CCARM 3089; type: functional
Pseudomonas aeruginosa [32] = assay: Potentiation of ciprofloxacin-induced antibacterial activity against mutidrug-resistant Pseudomonas aeruginosa CCARM 2095 assessed as reduction in ciprofloxacin MIC at 1/16th MIC incubated for 72 hrs by spectrophotometry; type: functional
Staphylococcus aureus [33] = assay: Fractional inhibitory concentration, ratio of MIC of compound in presence of 128 uM chloramphenicol to MIC of chloramphenicol for antibacterial activity against methicillin-resistant Staphylococcus aureus CCARM 3089; type: functional
Staphylococcus aureus [34] = assay: Antibacterial activity against methicillin-resistant Staphylococcus aureus CCARM 3089 assessed as reduction in bacterial growth incubated for 72 hrs in presence of 128 uM chloramphenicol by spectrophotometry; type: functional; conditions: CCARM 3089, 72 h
Staphylococcus aureus [35] = assay: Fractional inhibitory concentration, ratio of MIC of compound in presence of […] uM ciprofloxacin to MIC of ciprofloxacin for antibacterial activity against methicillin-resistant Staphylococcus aureus CCARM 3089; type: functional

Row | Compound | FIC (Staphylococcus aureus [1]) | fold change (FC) (Staphylococcus aureus [2]) | MIC (Staphylococcus aureus [3]) [µM] | MIC (Pseudomonas aeruginosa [4]) [µM] | fractional inhibitory concentration index (FICI) (Pseudomonas aeruginosa [5]) | FIC (Pseudomonas aeruginosa [6]) | fold change (FC) (Staphylococcus aureus [7]) | MIC (Staphylococcus aureus [8]) [µM] | fold change (FC) (Pseudomonas aeruginosa [9]) | fold change (FC) (Pseudomonas aeruginosa [10]) | MIC (Pseudomonas aeruginosa [11]) [µM] | MIC (Enterococcus faecium) [µM] | fractional inhibitory concentration index (FICI) (Staphylococcus aureus [12]) | fractional inhibitory concentration index (FICI) (Pseudomonas aeruginosa [13]) | FIC (Pseudomonas aeruginosa [14]) | Activity (Staphylococcus aureus [15]) | MIC (Pseudomonas aeruginosa [16]) [µM] | MIC (Pseudomonas aeruginosa [17]) [µM] | MIC (Pseudomonas aeruginosa [18]) [µM] | fractional inhibitory concentration index (FICI) (Staphylococcus aureus [19]) | also measured
1 | CC[C@H](C)[C@H](NC(=O)[C@H](CCCCN)NC(=O)[C@H](CCC(=O)O)NC(=O)[C@H](CCCCN)NC(=O)[C@H](CO)NC(=O)[C@H](CCCCN)NC(=O)[C@H](CCCNC(=N)N)NC(=O)[C@H](Cc1ccccc1)NC(=O)[C@H](Cc1ccccc1)NC(=O)[C@H](CC(=O)O)NC(=O)CNC(=O)[C@H](CC(C)C)NC(=O)[C@@H](N)CC(C)C)C(=O)NCC(=O)N[C@@H](CCCCN)C(=O)N[C@@H](CCC(=O)O)C(=O)N[C@@H](Cc1ccccc1)C(=O)N[C@@H](CCCCN)C(=O)N[C@@H](CCCNC(=N)N)C(=O)N[C@H](C(=O)N[C@H](C(=O)N[C@@H](CCC(N)=O)C(=O)N[C@@H](CCCNC(=N)N)C(=O)N[C@H](C(=O)N[C@@H](CCCCN)C(=O)N[C@@H](CC(=O)O)C(=O)N[C@@H](Cc1ccccc1)C(=O)N[C@@H](CC(C)C)C(=O)N[C@@H](CCCNC(=N)N)C(=O)N[C@@H](CC(N)=O)C(=O)N[C@@H](CC(C)C)C(=O)N[C@H](C(=O)N1CCC[C@H]1C(=O)N[C@@H](CCCNC(=N)N)C(=O)N[C@H](C(=O)N[C@@H](CCC(=O)O)C(=O)N[C@@H](CO)C(=O)O)[C@@H](C)O)C(C)C)[C@@H](C)CC)C(C)C)[C@@H](C)CC [CATHELICIDIN] | 1 | 2 - 16 | 8 (≈ 35.9 µg/mL) | 128 (≈ 575 µg/mL) | 2 | 0.25 | 2 - 16 | 256 (≈ 1150 µg/mL) | 2 - 4 | 2 - 4 | 4 (≈ 18 µg/mL) | 8 (≈ 35.9 µg/mL) | 1.25 | 0.75 | 0.25 | Active | 8 (≈ 35.9 µg/mL) | 512 (≈ 2300 µg/mL) | 4 (≈ 18 µg/mL) | 0.75 | MIC (Staphylococcus aureus [20]): 4 µM (≈ 18 µg/mL); MIC (Pseudomonas aeruginosa [21]): 256 µM (≈ 1150 µg/mL); fractional inhibitory concentration index (FICI) (Staphylococcus aureus [22]): 1; FIC (Pseudomonas aeruginosa [23]): 1; MIC (Staphylococcus aureus [24]): 8 µM (≈ 35.9 µg/mL); Activity (Staphylococcus aureus [25]): Active; MIC (Staphylococcus aureus [26]): 16 µM (≈ 71.9 µg/mL); FIC (Pseudomonas aeruginosa [27]): 0.5; FIC (Pseudomonas aeruginosa [28]): 1; FIC (Staphylococcus aureus [29]): 0.25; FIC (Pseudomonas aeruginosa [30]): 0.5; FIC (Staphylococcus aureus [31]): 0.5; fold change (FC) (Pseudomonas aeruginosa [32]): 2 - 4; FIC (Staphylococcus aureus [33]): 0.5; MIC (Staphylococcus aureus [34]): 64 µM; FIC (Staphylococcus aureus [35]): 0.25
2 | H-LVIRWVRAGYKLYRAIKKK-NH2 | 0.125 | 4 - 32 | 4 | 64 | 0.5 | 0.125 | 4 - 32 | 256 | 4 - 16 | 4 - 16 | 2 | 4 | 0.375 | 0.625 | 0.031 | Active | 4 | 128 | 2 | 0.5 | MIC (Staphylococcus aureus [20]): 2 µM; MIC (Pseudomonas aeruginosa [21]): 32 µM; fractional inhibitory concentration index (FICI) (Staphylococcus aureus [22]): 0.25; FIC (Pseudomonas aeruginosa [23]): 0.25; MIC (Staphylococcus aureus [24]): 4 µM; Activity (Staphylococcus aureus [25]): Active; MIC (Staphylococcus aureus [26]): 2 µM; FIC (Pseudomonas aeruginosa [27]): 0.25; FIC (Pseudomonas aeruginosa [28]): 0.25; FIC (Staphylococcus aureus [29]): 0.25; FIC (Pseudomonas aeruginosa [30]): 0.5; FIC (Staphylococcus aureus [31]): 0.125; fold change (FC) (Pseudomonas aeruginosa [32]): 4 - 16; FIC (Staphylococcus aureus [33]): 0.125; MIC (Staphylococcus aureus [34]): 16 µM; FIC (Staphylococcus aureus [35]): 0.25
